Results on two compounds are retold here after patent publication US10556860B2, “hTERT modulators and methods of use” (Arizona Board of Regents on Behalf of the University of …, priority 2015, dated 2020).

One experiment concerns MYC mRNA. Put plainly: qPCR of MYC mRNA in MCF7 cells. The settings on record: 72 h. The class given is cell-based, human. As to the method:
qPCR. MCF7 and melanoma cells were treated with GTC365 and BRACO-19 for 72 h. Total RNA was extracted using an RNeasy mini-prep kit (Qiagen) and quantitated by measuring absorbance at 260 nm. cDNA was synthesized using a Takara PrimeScript™ RT Reagent Kit with gDNA eraser and then used as a template for qPCR. The qPCR was performed using Kapa Probe Fast qPCR Master Mix with ABI Taqman probes of hTERT (Hs00972656_m1), BCL2 (HS00608023_m1, FAM-labeled) or MYC (Hs00153408_m1), and GAPDH (Hs02758991_g1, VIC-labeled). The Ct values were measured by running Rotor-Gene Q, and the relative quantity of hTERT, BCL2, and MYC mRNA was obtained compared to GAPDH as an internal control.
BCL2 is a downstream molecule to hTERT such that BCL2 expression is activated by hTERT to repress apoptosis. To further define the effect of GTC365 on the transcription of hTERT, the relative mRNA levels of MYC and BCL2 were determined by quantitative PCR analysis in MCF7 cells after treatment with GTC365 for 72 h. […] A series of GTC260 analogs were synthesized and their effect on hTERT gene expression in MCF7A and U87 cells determined (FIG. 7). […] Therefore, GTC365 directly repressed the transcription of hTERT and then led to a downstream decrease of BCL2 expression.
(In general: Real-time PCR tracks product formation cycle by cycle.)

The subject of experiment [1] is telomere length in MCF7 cells. Description: Telomere length assay (qPCR) in MCF7 cells. The class given is cell-based, human. The following applies: 0.5 μM. As to the method: Telomere length assay. MCF7 cells were treated with DMSO, GTC365 for 5-10 days, or BRACO-19 for 25-30 days. Meanwhile, cells were subcultured to maintain <90% confluent. Cells were collected by cell scraper and then subjected to gDNA extraction by DNA extraction kit (Qiagen). Ten ng of gDNA was used for SYBR Green I-based qPCR assay with 1 M betaine, 700 nM telomere primers, and 200 nM 36B4 single-copy gene. A pair of Tel1 and Tel2 was used for amplification of the telomere region and a pair of 36B4F and 36B4R for amplification of a single-copy gene to normalize data. The PCR was initiated at 95° C. for 3 min and then 27 cycles at 95° C. for 3 sec and 60° C. for 2 min. The fluorescence signal at 60° C. was acquired. Triplicate data was averaged and normalized to 36B4 to obtain ΔCt. The relative telomere length was determined compared to the DMSO.
hTERT-positive MCF7 breast cancer cell lines were used to gain mechanistic insight into how the GTC365-induced inhibition of proliferation occurs. Change in relative telomere length by GTC365 was measured by qPCR with gDNA extracted from GTC365-treated MCF7 cells. After 10 days of treatment GTC365 decreased telomere length in a dose-dependent manner, and at a dose of 0.5 μM, the telomere length was reduced by 20%. In contrast, BRACO-19 reduced telomere length by ˜12% at the same concentration but required 25-30 days of treatment (FIG. 9).

Experiment [2] deals with G138/139A mutant hTERT 5-12 fragment. Description: Single-molecule laser tweezer unfolding, G138/139A mutant. The class given is biochemical, human. The settings on record: 2 μM. How it is done:
Single-molecule tweezer. Preparation of the DNA construct. The DNA construct that contains the single-stranded hTERT 5-12 fragment was prepared by sandwiching the target sequence between two double-stranded DNA handles. Five deoxythymidines were added at both ends of the hTERT 5-12 fragment to reduce the interference from the double-stranded DNA handles on the target sequence. Briefly, the 2690-base-pair double-stranded DNA handle was prepared through restriction enzyme digestion of the pEGFP vector (Clontech, Mountain View, Calif.). In the first step, the vector was digested by Sad and Eagl restriction enzymes, followed by purification with agarose gel. The EagI end of the DNA fragment was labeled with digoxigenin using terminal deoxynucleotidyl transferase. […]
Single-molecule force-ramp assay. […] After this, the two beads were moved apart to increase the tension on the DNA tether with a loading rate of 5.5 pN/s, and the force-extension (F-X) curves were recorded using the LabVIEW program (National Instruments Corp., Austin, Tex.).
The F-X curves were filtered by Savitzky-Golay function with a 10 ms time constant in the MATLAB program (The Math Works, Natick, Mass.). […] The change-in-contour length (ΔL) was calculated based on the Δx through the worm-like chain model (equation 1). […]

For the compound `CN(C)c1ccc(Nc2c3ccc(NC(=O)CCN4CCCC4)cc3nc3cc(NC(=O)CCN4CCCC4)ccc23)cc1` [BRACO-19, reference compound], in the experiment with MYC mRNA, the “effect on MYC mRNA level” value is “decreased”. In addition, the “reduction of telomere length” value in experiment [1] (25-30 days) is listed as about 12%. Besides, in experiment [2], the “population of fully folded structures” value is recorded as “minimallypromoted the fully folded structure”.
As for `N=C(N)NCCCS(=O)(=O)Nc1ccc(Nc2c3ccccc3nc3cc([N+](=O)[O-])ccc23)cc1` [GTC365], the “effect on MYC mRNA level” value in the experiment with MYC mRNA is reported as “no significant change”. Also, in experiment [1] (10 days), the “reduction of telomere length” value was 20%. For the same compound, the “population of fully folded structures” value in experiment [2] is given as “significantly recovered”.
